Consider 13 molecules from US9096591B2, “Tetracyclic compounds” (Medivation Technologies, Inc., priority 2007, dated 2015).

Experiment [1] addresses T1, human recombinant histamine H1 receptor (Homo sapiens, UniProt P35367).
T1 construct: expressed in transfected cells; host or cells: CHO cells
In words: Histamine H1 radioligand binding ([3H]Pyrilamine). The method in brief: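 CHO-expressed receptor in modified Tris-HCl buffer (50 mM, pH 7.4; 2 mM MgCl2, 100 mM NaCl, 250 mM sucrose); bound ligand measured after filtration and washing.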

In experiment [2] the target is T2, human recombinant adrenergic α2B receptor (Homo sapiens, UniProt P18089).
T2 construct: expressed in transfected cells; host or cells: CHO-K1 cells
T2 sequence (P18089 1-450): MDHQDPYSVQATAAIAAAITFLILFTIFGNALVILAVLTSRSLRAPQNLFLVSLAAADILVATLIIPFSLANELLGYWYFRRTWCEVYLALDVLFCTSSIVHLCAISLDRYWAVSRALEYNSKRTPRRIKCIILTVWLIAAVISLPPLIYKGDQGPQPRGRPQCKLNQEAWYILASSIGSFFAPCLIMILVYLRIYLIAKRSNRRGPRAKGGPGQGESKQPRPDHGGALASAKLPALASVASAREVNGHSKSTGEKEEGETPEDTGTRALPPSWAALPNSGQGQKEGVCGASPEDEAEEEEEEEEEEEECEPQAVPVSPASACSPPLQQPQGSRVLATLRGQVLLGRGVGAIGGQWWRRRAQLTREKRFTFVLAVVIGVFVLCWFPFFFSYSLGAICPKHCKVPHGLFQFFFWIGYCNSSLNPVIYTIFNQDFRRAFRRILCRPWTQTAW
Put plainly: Adrenergic α2B radioligand binding ([3H]Rauwolscine). The following applies: percent inhibition of specific binding. Also noted: Inhibition of ligand binding, Adren. alpha2B: concentration or dose not given beside the values. The method, boiled down:
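Incubation ran 60 minutes at 25 °C in modified Tris-HCl buffer (50 mM, pH 7.4, 12.5 mM MgCl2, 1 mM EDTA, 0.2% BSA) using CHO-K1-expressed human receptor.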

The target of experiment [3] is T3, human recombinant serotonin (5-Hydroxytryptamine) 5-HT2A receptor (Homo sapiens, UniProt P28223).
T3 construct: expressed in transfected cells; host or cells: CHO-K1 cells
In words: Serotonin 5-HT2A radioligand binding ([3H]Ketanserin). To be noted: for Inhibition of ligand binding, Ser. 5-HT2A: percent inhibition of specific binding. On the procedure: Compounds of the invention were incubated with 0.5 nM [^3H]Ketanserin for 60 minutes at 25° C. Non-specific binding was estimated in the presence of 1 μM Mianserin. Receptor proteins were filtered and washed, the filters were then counted to determine [^3H]Ketanserin specifically bound. […] Biochemical assay results are presented as the percent inhibition of specific binding in Table 6.

The target in experiment [4] is T4, human recombinant serotonin (5-Hydroxytryptamine) 5-HT2C receptor (Homo sapiens, UniProt P28335).
T4 construct: expressed in transfected cells; host or cells: CHO-K1 cells
T4 sequence (P28335 33-458): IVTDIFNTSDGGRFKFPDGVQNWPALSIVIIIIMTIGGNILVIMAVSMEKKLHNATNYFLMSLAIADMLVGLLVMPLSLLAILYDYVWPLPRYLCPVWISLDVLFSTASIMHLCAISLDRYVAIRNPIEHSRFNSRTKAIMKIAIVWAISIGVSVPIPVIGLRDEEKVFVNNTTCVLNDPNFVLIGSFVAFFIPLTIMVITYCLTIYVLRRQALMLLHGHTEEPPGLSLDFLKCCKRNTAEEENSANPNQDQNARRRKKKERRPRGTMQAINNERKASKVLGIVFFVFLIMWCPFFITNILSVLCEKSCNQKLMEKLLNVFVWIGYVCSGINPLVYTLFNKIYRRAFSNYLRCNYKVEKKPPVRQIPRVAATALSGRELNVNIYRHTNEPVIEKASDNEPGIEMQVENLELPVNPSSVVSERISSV
In words: Serotonin 5-HT2C radioligand binding ([3H]Mesulergine). Also noted: Inhibition of ligand binding, Ser. 5-HT2C: concentration or dose not given beside the values. To be noted: percent inhibition of specific binding. How it is done:
Compounds of the invention were incubated with 1 nM [^3H]Mesulergine for 60 minutes at 25° C. Non-specific binding was estimated in the presence of 1 μM Mianserin. Receptor proteins were filtered and washed, the filters were then counted to determine [^3H]Mesulergine specifically bound. […] Biochemical assay results are presented as the percent inhibition of specific binding in Table 6.

For experiment [5], the target named is T5, human recombinant serotonin (5-Hydroxytryptamine) 5-HT6 receptor (Homo sapiens, UniProt P50406).
T5 construct: expressed in transfected cells; host or cells: human HeLa cells
Put plainly: Serotonin 5-HT6 radioligand binding ([3H]LSD). To be noted: percent inhibition of specific binding. More on the design: Inhibition of ligand binding, Ser. 5-HT6: concentration or dose not given beside the values. The source says: Receptor proteins were filtered and washed, the filters were then counted to determine [3H]LSD specifically bound. […] Biochemical assay results are presented as the percent inhibition of specific binding in Table 6.

Setting [6] is: 1 μM compound, […] [3H]Pyrilamine, read-out: Histamine Binding H1, percent inhibition of specific binding.
The mark [7] stands for this setting: percent inhibition of specific binding, screened at 1 μM, read-out: Inhibition of ligand binding, Hist. H1.

Like-named read-outs stand apart in the source and are kept apart here.

T1 sequence (P35367 whole entry): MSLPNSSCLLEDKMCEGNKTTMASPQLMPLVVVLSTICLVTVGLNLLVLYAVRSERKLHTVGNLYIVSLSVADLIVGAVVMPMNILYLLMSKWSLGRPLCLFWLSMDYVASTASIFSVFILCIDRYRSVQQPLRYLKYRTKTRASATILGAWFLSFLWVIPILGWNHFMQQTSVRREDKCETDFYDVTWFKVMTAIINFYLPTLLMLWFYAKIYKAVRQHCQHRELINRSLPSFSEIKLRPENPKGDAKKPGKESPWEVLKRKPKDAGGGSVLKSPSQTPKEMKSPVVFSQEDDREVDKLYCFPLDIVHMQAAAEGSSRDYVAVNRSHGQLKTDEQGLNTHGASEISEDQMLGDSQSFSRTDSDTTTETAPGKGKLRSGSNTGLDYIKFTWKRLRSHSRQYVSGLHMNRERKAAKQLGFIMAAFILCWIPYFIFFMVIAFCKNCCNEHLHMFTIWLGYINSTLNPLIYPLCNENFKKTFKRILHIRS
T5 sequence (P50406 whole entry): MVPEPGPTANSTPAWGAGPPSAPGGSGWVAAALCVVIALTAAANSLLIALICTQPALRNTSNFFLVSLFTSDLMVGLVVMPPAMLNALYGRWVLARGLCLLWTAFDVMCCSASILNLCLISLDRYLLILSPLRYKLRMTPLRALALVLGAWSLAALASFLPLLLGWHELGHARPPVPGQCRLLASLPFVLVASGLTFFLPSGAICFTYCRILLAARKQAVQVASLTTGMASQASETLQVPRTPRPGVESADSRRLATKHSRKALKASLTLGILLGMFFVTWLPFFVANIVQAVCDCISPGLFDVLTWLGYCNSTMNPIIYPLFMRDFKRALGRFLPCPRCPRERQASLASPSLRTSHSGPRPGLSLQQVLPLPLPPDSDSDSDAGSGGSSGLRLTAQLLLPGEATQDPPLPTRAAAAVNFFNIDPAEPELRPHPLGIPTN
T3 sequence (P28223 whole entry): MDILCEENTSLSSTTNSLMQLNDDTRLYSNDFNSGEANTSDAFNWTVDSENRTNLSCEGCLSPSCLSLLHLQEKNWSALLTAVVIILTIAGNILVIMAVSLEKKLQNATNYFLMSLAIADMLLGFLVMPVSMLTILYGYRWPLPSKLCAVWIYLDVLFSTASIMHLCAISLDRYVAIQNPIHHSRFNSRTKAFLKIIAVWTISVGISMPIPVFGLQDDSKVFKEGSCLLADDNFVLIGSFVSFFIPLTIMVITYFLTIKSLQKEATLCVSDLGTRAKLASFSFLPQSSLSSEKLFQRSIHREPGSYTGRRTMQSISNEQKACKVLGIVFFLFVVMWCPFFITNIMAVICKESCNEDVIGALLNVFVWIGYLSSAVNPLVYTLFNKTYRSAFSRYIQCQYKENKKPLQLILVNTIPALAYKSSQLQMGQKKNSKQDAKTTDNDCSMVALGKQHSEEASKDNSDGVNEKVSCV

On to `Cc1ccc2c(c1)c1c(n2Cc2ccccc2)CCN(C)C1` [Compound 137, 5-benzyl-2,3,4,5-tetrahydro-2,8-dimethyl-1H-pyrido[4,3-b]indole], for which the inhibition at 1 µM in experiment [1] (setting [6]) and in experiment [1] (setting [7]) was 11% in each case. The “Inhibition of ligand binding, Adren. alpha2B” value (shortened to “Inhibition … Adren. alpha2B”) in experiment [2] was determined as 3%. Besides, the “Inhibition of ligand binding, Ser. 5-HT2A” value (shortened to “Inhibition … Ser. 5-HT2A”) in experiment [3] was −2%. Also, the “Inhibition of ligand binding, Ser. 5-HT2C” value (from here on “Inhibition … Ser. 5-HT2C”) in experiment [4] is given as 10%. The “Inhibition of ligand binding, Ser. 5-HT6” value in experiment [5] was 12%.
In the case of `CCN1CCc2c(c3cc(C)ccc3n2Cc2ccc(C)nc2)C1` [Compound 138, 2-ethyl-2,3,4,5-tetrahydro-8-methyl-5-((6-methylpyridin-3-yl)methyl)-1H-pyrido[4,3-b]indole], the inhibition at 1 µM in experiment [1] (setting [6]) and in experiment [1] (setting [7]) was 68% each time. For the same molecule, the “Inhibition … Adren. alpha2B” value in experiment [2] turned out to be 19%. Besides, the “Inhibition … Ser. 5-HT2A” value in experiment [3] was found to be 14%. In experiment [4], the “Inhibition … Ser. 5-HT2C” value is 5%. For the same molecule, in experiment [5], the “Inhibition of ligand binding, Ser. 5-HT6” value is 22%.
Regarding `Cc1ccc2c(c1)c1c(n2Cc2ccc(C)nc2)CCN(C)C1` [Compound 139, 2,3,4,5-tetrahydro-2,8-dimethyl-5-((6-methylpyridin-3-yl)methyl)-1H-pyrido[4,3-b]indole], the inhibition (commonly the change of the read-out against control, counted positive when it falls) at 1 µM in experiment [1] (setting [6]) is 81%; in experiment [1] (setting [7]), 74%. For the same molecule, the “Inhibition … Adren. alpha2B” value in experiment [2] amounted to 52%. Moreover, in experiment [3], the “Inhibition … Ser. 5-HT2A” value was 2%. Further, the “Inhibition … Ser. 5-HT2C” value in experiment [4] was 0%. In addition, the “Inhibition of ligand binding, Ser. 5-HT6” value in experiment [5] is 39%.
`CCN1CCc2c(c3cc(C)ccc3n2Cc2ccccc2)C1` [Compound 140, 5-benzyl-2-ethyl-2,3,4,5-tetrahydro-8-methyl-1H-pyrido[4,3-b]indole]: the inhibition at 1 µM in experiment [1] (setting [6]) and in experiment [1] (setting [7]) was 15% in each case. For the same molecule, the “Inhibition … Adren. alpha2B” value in experiment [2] was −4%. Besides, in experiment [3], the “Inhibition … Ser. 5-HT2A” value is −3%. Also, in experiment [4], the “Inhibition … Ser. 5-HT2C” value is −10%. In experiment [5], the “Inhibition of ligand binding, Ser. 5-HT6” value is recorded as 8%.
Consider `Cc1ccc2c(c1)c1c(n2CCC2CCCCC2)CCN(C)C1` [Compound 163, 5-(2-cyclohexylethyl)-2,3,4,5-tetrahydro-2,8-dimethyl-1H-pyrido[4,3-b]indole], for which the inhibition at 0.01 µM in experiment [1] (10 nM (0.01 μM) compound, […] [3H]Pyrilamine, read-out: Histamine Binding H1, percent inhibition of specific binding) is 59%. Moreover, the inhibition at 0.1 µM in experiment [1] (0.1 μM compound, […] [3H]Pyrilamine, read-out: Histamine Binding H1, percent inhibition of specific binding) was 92%. Besides, the inhibition at 1 µM in experiment [1] (setting [6]) and in experiment [1] (setting [7]) was 103% in each case. Further, the “Inhibition … Adren. alpha2B” value in experiment [2] came out at 104%. Moreover, the “Inhibition … Ser. 5-HT2A” value in experiment [3] is recorded as 92%. Besides, the “Inhibition … Ser. 5-HT2C” value in experiment [4] amounted to 99%. In addition, the “Inhibition of ligand binding, Ser. 5-HT6” value in experiment [5] came out at 99%.
Turning to `Cc1ccc2c(c1)c1c(n2CCN2CCCC2)CCN(C)C1` [Compound 221, 2,3,4,5-tetrahydro-2,8-dimethyl-5-(2-(pyrrolidin-1-yl)ethyl)-1H-pyrido[4,3-b]indole], the inhibition at 1 µM in experiment [1] (setting [6]) and in experiment [1] (setting [7]) was 78% each time. For the same molecule, the “Inhibition … Adren. alpha2B” value in experiment [2] is on record as 26%. Further, in experiment [3], the “Inhibition … Ser. 5-HT2A” value was 46%. Further, the “Inhibition … Ser. 5-HT2C” value in experiment [4] came to 69%. The “Inhibition of ligand binding, Ser. 5-HT6” value in experiment [5] is 29%.
`Cc1ccc2c(c1)c1c(n2CCc2ccc(C)nc2)CCNC1` [Compound 230, 2,3,4,5-tetrahydro-8-methyl-5-(2-(6-methylpyridin-3-yl)ethyl)-1H-pyrido[4,3-b]indole]: the inhibition at 1 µM turned out to be 46% in experiment [1] (setting [6]) and 93% in experiment [1] (setting [7]). Also, the “Inhibition … Adren. alpha2B” value in experiment [2] is given as 104%. The “Inhibition … Ser. 5-HT2A” value in experiment [3] is recorded as 33%. Besides, in experiment [4], the “Inhibition … Ser. 5-HT2C” value stood at 36%. Further, the “Inhibition of ligand binding, Ser. 5-HT6” value in experiment [5] is given as 45%.
As to `Cc1ccc2c(c1)c1c(n2CCC(=O)N2CCC(N)CC2)CCN(C)C1` [Compound 231, 1-(4-aminopiperidin-1-yl)-3-(1,2,3,4-tetrahydro-2,8-dimethylpyrido[4,3-b]indol-5-yl)propan-1-one], the inhibition at 1 µM in experiment [1] (setting [6]) and in experiment [1] (setting [7]) was -11% throughout. For the same molecule, in experiment [2], the “Inhibition … Adren. alpha2B” value turned out to be 11%. The “Inhibition … Ser. 5-HT2A” value in experiment [3] was determined as 5%. For the same molecule, in experiment [4], the “Inhibition … Ser. 5-HT2C” value was determined as 49%. Besides, in experiment [5], the “Inhibition of ligand binding, Ser. 5-HT6” value was found to be 3%.
On to `Cc1ccc2c(c1)c1c(n2CCc2ccc(C)nc2)C(Br)C(=O)N(C)C1` (stereo not shown) [Compound 232, 4-bromo-1,2-dihydro-2,8-dimethyl-5-(2-(6-methylpyridin-3-yl)ethyl)-4H-pyrido[4,3-b]indol-3(5H)-one], for which the inhibition at 1 µM in experiment [1] (setting [6]) and in experiment [1] (setting [7]) was -6% each time. Moreover, the “Inhibition … Adren. alpha2B” value in experiment [2] is listed as 8%. Further, in experiment [3], the “Inhibition … Ser. 5-HT2A” value was −10%. In addition, the “Inhibition … Ser. 5-HT2C” value in experiment [4] amounted to 2%. The “Inhibition of ligand binding, Ser. 5-HT6” value in experiment [5] is on record as −7%.
In the case of `Cc1ccc2c(c1)c1c(n2CCCc2ccccn2)CCN(C)C1` [Compound 233, 2,3,4,5-tetrahydro-2,8-dimethyl-5-(3-(pyridin-2-yl)propyl)-1H-pyrido[4,3-b]indole], the inhibition at 1 µM in experiment [1] (setting [6]) and in experiment [1] (setting [7]) was 99% each time. Besides, the “Inhibition … Adren. alpha2B” value in experiment [2] is 96%. The “Inhibition … Ser. 5-HT2A” value in experiment [3] is reported as 92%. In experiment [4], the “Inhibition … Ser. 5-HT2C” value is listed as 93%. Also, the “Inhibition of ligand binding, Ser. 5-HT6” value in experiment [5] came to 95%.
Regarding `COc1ccc(CCn2c3c(c4cc(C)ccc42)CN(C)CC3)cc1` [Compound 247], the inhibition at 1 µM in experiment [1] (setting [6]) and in experiment [1] (setting [7]) was 100% in each case. For the same molecule, the “Inhibition … Adren. alpha2B” value in experiment [2] amounted to 103%. The inhibition at 0.001 µM in experiment [3] (read-out: Inhibition of ligand binding, Ser. 5-HT2A) was found to be 22%. Moreover, in experiment [4], the “Inhibition … Ser. 5-HT2C” value was 93%. Further, in experiment [5], the “Inhibition of ligand binding, Ser. 5-HT6” value worked out at 107%.
Turning to `Cc1ccc2c(c1)c1c(n2CCc2ccc(C(=O)O)nc2)CCN(C)C1` [Compound 255], the inhibition at 1 µM in experiment [1] (setting [6]) and in experiment [1] (setting [7]) was 71% throughout. The “Inhibition … Adren. alpha2B” value in experiment [2] stood at 4%. Besides, the “Inhibition … Ser. 5-HT2A” value in experiment [3] was 1%. Further, the “Inhibition … Ser. 5-HT2C” value in experiment [4] turned out to be 11%. Besides, in experiment [5], the “Inhibition of ligand binding, Ser. 5-HT6” value worked out at 2%.
As to `Cc1ccc2c(c1)c1c(n2CCc2ccc(CO)nc2)CCN(C)C1` [Compound 267], in experiment [1] (setting [7]), the inhibition at 1 µM was determined as 96%. Besides, the “Inhibition … Adren. alpha2B” value in experiment [2] was 100%. In addition, the “Inhibition … Ser. 5-HT2A” value in experiment [3] is 73%. In experiment [4], the “Inhibition … Ser. 5-HT2C” value worked out at 76%. The “Inhibition of ligand binding, Ser. 5-HT6” value in experiment [5] stood at 69%.
